Measurements from publication PMC6723713, “Purification, Characterization and Evaluation of Inhibitory Mechanism of ACE Inhibitory Peptides from Pearl Oyster (Pinctada fucata martensii) Meat Protein Hydrolysate” (Marine Drugs, 2019).
Read-outs that look alike come from different tables or passages of the source. Blank lines part the entries; values can stand above or below the molecule they belong to. Where a SMILES comes first, the peptide text is derived from it.

Key:
[1] = target: T1, Angiotensin-I-converting enzyme (ACE) (Oryctolagus cuniculus, UniProt P12822); experiment: In vitro assay of ACE inhibitory activity; assay type: biochemical; conditions: triplicate, mean ± SD; for ACE inhibitory activity: 0.54 mg/mL protein concentration, second RP-HPLC fractions; for IC50: logarithmic regression
T1 construct: purchased Sigma-Aldrich (Shanghai, China)
T1 sequence (P12822 34-1310): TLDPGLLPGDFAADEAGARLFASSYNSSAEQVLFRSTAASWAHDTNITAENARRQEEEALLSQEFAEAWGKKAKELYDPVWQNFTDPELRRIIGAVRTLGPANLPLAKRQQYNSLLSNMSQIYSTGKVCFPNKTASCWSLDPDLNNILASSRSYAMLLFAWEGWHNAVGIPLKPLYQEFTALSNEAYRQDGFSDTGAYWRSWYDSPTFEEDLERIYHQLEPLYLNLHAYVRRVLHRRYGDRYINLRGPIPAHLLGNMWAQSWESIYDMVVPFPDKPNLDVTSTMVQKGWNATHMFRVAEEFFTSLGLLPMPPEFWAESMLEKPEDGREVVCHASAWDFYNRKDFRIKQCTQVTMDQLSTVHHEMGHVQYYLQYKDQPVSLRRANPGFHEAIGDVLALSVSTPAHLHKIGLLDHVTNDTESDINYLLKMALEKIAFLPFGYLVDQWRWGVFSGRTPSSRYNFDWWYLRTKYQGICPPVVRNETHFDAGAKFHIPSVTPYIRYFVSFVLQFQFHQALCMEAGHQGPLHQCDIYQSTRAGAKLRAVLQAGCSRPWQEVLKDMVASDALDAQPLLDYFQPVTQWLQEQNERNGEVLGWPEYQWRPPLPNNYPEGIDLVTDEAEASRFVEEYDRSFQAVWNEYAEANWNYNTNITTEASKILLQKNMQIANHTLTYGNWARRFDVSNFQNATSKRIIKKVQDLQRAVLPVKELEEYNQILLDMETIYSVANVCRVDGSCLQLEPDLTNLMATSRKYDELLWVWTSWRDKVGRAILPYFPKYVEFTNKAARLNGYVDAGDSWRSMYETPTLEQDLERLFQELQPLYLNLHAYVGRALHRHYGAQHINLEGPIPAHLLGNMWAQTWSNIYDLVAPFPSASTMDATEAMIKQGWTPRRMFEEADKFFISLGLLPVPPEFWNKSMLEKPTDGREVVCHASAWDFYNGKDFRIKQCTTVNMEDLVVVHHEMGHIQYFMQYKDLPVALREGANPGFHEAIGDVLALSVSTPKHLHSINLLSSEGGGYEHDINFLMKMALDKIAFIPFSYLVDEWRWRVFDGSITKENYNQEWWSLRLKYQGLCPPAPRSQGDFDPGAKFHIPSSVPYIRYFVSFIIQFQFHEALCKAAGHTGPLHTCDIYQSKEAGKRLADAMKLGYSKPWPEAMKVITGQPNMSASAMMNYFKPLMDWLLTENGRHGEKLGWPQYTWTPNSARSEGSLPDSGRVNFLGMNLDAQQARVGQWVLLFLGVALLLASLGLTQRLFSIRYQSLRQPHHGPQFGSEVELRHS
Protocol: ACE inhibitory activity in vitro was measured according to the reported method. The activity was determined for each step of separation, and fraction with the highest ACE inhibitory activity was collected for further purification. The IC50 value (the concentration of peptide inhibiting 50% of enzyme activity) was determined by logarithmic regression analysis.
(§1) All the experiments were performed in triplicate and mean values with ± SD (standard deviation) were reported. All data were analyzed by one-way ANOVA, using SPSS 17.0 software (Chicago, IL, USA). A value of p < 0.05 was considered statistically significant.

ACE [2] = target: T2, ACE (Oryctolagus cuniculus, UniProt P12822); experiment: Inhibition pattern by Lineweaver-Burk plot; assay type: biochemical; conditions: HHL 1-5 mM, HLHT 0, 295.86, 591.72 μM, GWA 0, 98.62, 197.24 μM, pre-incubated 37 °C 10 min, 5 min incubation with HHL, HPLC 228 nm
T2 construct: purchased Sigma-Aldrich (Shanghai, China)
T2 sequence (P12822 34-1310): T1 sequence (P12822 34-1310)
Protocol: The inhibitory patterns of purified peptides HLHT and GWA on ACE were evaluated by incubating various concentrations (1, 2, 3, 4, and 5 mM) of HHL with ACE in the absence and presence of inhibitory peptides. The concentrations of HLHT were set as 0, 295.86, and 591.72 μM while those of GWA were set as 0, 98.62, and 197.24 μM. The purified ACE inhibitory peptide (30 µL) at various concentrations and ACE solution (30 µL) were mixed and pre-incubated at 37 °C for 10 min. Subsequently, HHL (40 µL) was added and incubated for 5 min at 37 °C. The reaction was terminated by adding 1 M HCl (150 µL). The released hippuric acid (HA) was quantified using HPLC at 228 nm. The ACE inhibitory pattern in the presence of the inhibitor was determined using the Lineweaver–Burk plot, where the reciprocal of HHL concentration was used as the independent variable (X-axis) and the reciprocal of production rate of HA as the dependent variable (Y-axis).

SD rats = experiment: Antihypertensive activity in SD rats, SBP and DBP after intravenous administration; assay type: in vivo; conditions: 10 mg/kg
Protocol: The antihypertensive efficacy of POMPH was evaluated in male SD rats (10 weeks old, 250 ± 30 g body weight, specific pathogen-free, provided by the animal experimental center of Guangxi medical University, China). All rats were cared and fed following the standards for laboratory animals established by People’s Republic of China (GB14925-2001) and animal handling followed the Declaration of Helsinki and the Guiding Principles in the Care and Use of Animals. The rats were exposed to intraperitoneal injection L-NNA (L-nitro-arginine) once a day for four weeks prior to the experiments. The POMPH at 10 mg/kg, dissolved in a vehicle of 0.9% NaCl, were intravenously administered. The concentration of HLHT and GWA in POMPH were 1.8 µg/mg and 1.2 µg/mg, respectively. The efficacy of POMPH on lowering SBP and diastolic blood pressure (DBP) was compared to that of captopril (10 mg/kg). Control rats were administrated with the same volume of saline solution. SBP and DBP were determined by the noninvasive tail cuff method using BP-2010 (Softron Beijing biotechnology Co., Ltd) at 0 min (before) and 5, 10, 20 and 45 min after the administration.
as §1

ACE [3] = target: T2, ACE; conditions: cited from earlier work
From the text: Table 2 Summary of ACE inhibitory peptides having similar structure with purified peptides. | column: IC50 (μM) || Table 3 Inhibition pattern of ACE inhibitory peptides derived from marine products. | column: Inhibition Pattern; IC50 (μM)

[4] = target: T3, Angiotensin I converting enzyme (UniProt P12822)
T3 sequence: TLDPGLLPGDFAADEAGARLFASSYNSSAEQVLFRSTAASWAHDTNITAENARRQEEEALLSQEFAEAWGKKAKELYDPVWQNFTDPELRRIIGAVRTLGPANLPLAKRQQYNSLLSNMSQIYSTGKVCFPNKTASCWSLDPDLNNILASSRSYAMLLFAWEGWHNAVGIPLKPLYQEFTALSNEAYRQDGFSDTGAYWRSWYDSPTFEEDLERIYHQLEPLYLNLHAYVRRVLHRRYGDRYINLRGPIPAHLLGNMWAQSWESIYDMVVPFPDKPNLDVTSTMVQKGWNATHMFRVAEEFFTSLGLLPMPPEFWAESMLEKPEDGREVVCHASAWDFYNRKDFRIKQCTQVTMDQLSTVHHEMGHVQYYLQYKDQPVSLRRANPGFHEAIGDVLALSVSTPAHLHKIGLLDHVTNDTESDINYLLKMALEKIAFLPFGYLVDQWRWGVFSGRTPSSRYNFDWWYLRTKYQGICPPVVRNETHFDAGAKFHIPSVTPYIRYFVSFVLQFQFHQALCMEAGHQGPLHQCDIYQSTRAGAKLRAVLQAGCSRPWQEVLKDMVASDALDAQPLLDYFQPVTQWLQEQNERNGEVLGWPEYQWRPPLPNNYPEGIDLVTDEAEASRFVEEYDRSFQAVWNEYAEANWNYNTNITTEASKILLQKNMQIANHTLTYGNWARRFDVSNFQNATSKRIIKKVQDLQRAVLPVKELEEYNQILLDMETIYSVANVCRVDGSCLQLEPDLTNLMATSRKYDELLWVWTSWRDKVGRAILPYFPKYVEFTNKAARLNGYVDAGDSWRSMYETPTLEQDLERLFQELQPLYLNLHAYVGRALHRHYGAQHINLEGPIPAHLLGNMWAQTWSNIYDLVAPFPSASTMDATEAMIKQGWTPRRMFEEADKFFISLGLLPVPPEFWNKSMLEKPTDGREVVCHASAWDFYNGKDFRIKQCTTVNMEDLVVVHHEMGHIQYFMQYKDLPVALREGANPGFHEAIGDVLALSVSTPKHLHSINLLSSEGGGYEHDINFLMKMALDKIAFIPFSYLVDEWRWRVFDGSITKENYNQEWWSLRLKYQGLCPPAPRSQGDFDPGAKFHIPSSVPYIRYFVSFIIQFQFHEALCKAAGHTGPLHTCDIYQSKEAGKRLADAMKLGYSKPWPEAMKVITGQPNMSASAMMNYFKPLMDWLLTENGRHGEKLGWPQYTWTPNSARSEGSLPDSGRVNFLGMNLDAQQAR

[5] = target: T3, Angiotensin I converting enzyme; remark: listed apart in the source
[6] = synthesized peptide (98% purity)

ACE inhibitory activity [1]: 84.71 ± 1.27%
IC50 ([1]; peptide purified from POMPH): 109 ± 1.45 µM
IC50 [1, 6]: 98.9 ± 5.73 µM
Inhibition Pattern (ACE [2]): competitive inhibition pattern
Molecule: C[C@H](NC(=O)[C@H](Cc1c[nH]c2ccccc12)NC(=O)CN)C(=O)O [GWA, Gly-Trp-Ala] (H-Gly-Trp-Ala-OH)

ACE inhibitory activity [1]: 64.73 ± 1.32%
IC50 ([1]; peptide purified from POMPH): 458.1 ± 3.24 µM
IC50 [1, 6]: 452.2 ± 2.36 µM
Molecule: CC(C)C[C@H](NC(=O)[C@@H](N)Cc1c[nH]cn1)C(=O)N[C@@H](Cc1c[nH]cn1)C(=O)N[C@H](C(=O)O)[C@@H](C)O [HLHT, His-Leu-His-Thr] (H-HLHT-OH)

Molecule: C[C@H](CS)C(=O)N1CCC[C@H]1C(=O)O [captopril]
change in SBP vs control, in words (SD rats; 0-45 min): significant decrease in SBP
maximum decrease in SBP (SD rats; 20 min, male L-NNA-treated SD rats, tail cuff): 27.0 mmHg
SBP beyond 20 min (SD rats; beyond 20 min (to 45 min)): remained stable
change in DBP vs control, in words (SD rats; in comparison with control group): significantly changed in comparison with control group
DBP after 20 min of intravenous administration (SD rats; "decreased to", 20 min, male L-NNA-treated SD rats, tail cuff): 39.5 mmHg

Molecule: CRQHTLGHNT-QTSIAQ
Inhibition Pattern (ACE [3]; ref [32]): Non-competitive

Molecule: CRQHTLGHNT-QTSIAQ (CRQHTLGHNTQTSIAQ)
IC50 (ACE [3]; ref [32]): 80 µM

Molecule: EVSQGRP
IC50 (ACE [3]; ref [32]): 50 µM
Inhibition Pattern (ACE [3]; ref [32]): Mixed inhibition

Molecule: FEDYVPLSCF
IC50 (ACE [3]; ref [31]): 10.8 µM
Inhibition Pattern (ACE [3]; ref [31]): Mixed inhibition

Molecule: GDLGKTTTVSN-WSPPKYKDTP
Inhibition Pattern (ACE [3]; ref [33]): Non-competitive

Molecule: GDLGKTTTVSN-WSPPKYKDTP (GDLGKTTTVSNWSPPKYKDTP)
IC50 (ACE [3]; ref [33]): 11.3 µM

Molecule: GWAP
IC50 (ACE [3]; ref [28]): 3.86 µM

ACE inhibitory activity (%) of fraction F62 at a protein concentration of 0.54 mg/mL [4]: 84.7%
IC50 of ACE inhibitory activity (enzyme activity on HHL), peptide purified from POMPH [5]: 109 µM
Molecule: Gly-Trp-Ala, purified from pearl oyster meat protein hydrolysate (fraction F62) (peptide)

IC50 of ACE inhibitory activity (enzyme activity on HHL), synthesized peptide [5]: 98.9 µM
Molecule: Gly-Trp-Ala, synthesized (peptide)

Molecule: HLPLP
IC50 (ACE [3]; ref [28]): 41 µM

Molecule: HLPLPLL
IC50 (ACE [3]; ref [28]): 34.4 µM

Molecule: IWHHT
IC50 (ACE [3]; ref [28]): 5.1 µM

Molecule: VELYP
IC50 (ACE [3]; ref [34]): 5.22 µM
Inhibition Pattern (ACE [3]; ref [34]): Non-competitive

Molecule: VVYPWTTQRF
IC50 (ACE [3]; ref [35]): 66 µM
Inhibition Pattern (ACE [3]; ref [35]): Non-competitive

Molecule: VWDPPKFD
IC50 (ACE [3]; ref [31]): 9.1 µM
Inhibition Pattern (ACE [3]; ref [31]): Non-competitive

Molecule: VWYHT
IC50 (ACE [3]; ref [28]): 28.3 µM

IC50 of ACE inhibitory activity (enzyme activity on HHL), synthesized peptide [5]: 452 µM
Molecule: HLHT [His-Leu-His-Thr, synthesized]

ACE inhibitory activity (%) of fraction F51 at a protein concentration of 0.54 mg/mL [4]: 64.7%
IC50 of ACE inhibitory activity (enzyme activity on HHL), peptide purified from POMPH [5]: 458 µM
Molecule: HLHT [His-Leu-His-Thr, purified from pearl oyster meat protein hydrolysate (fraction F51)]
